Source: the NIST ThermoML archive (doi:10.1021/je200150r)
± gives the expanded uncertainty stated by the source.

Tests used:
[1] = 101 kPa, Liquid; for viscosity: Capillary tube (Ostwald / Ubbelohde) method; for mass density: Pycnometric method
[2] = xn = mol fraction of the nth substance listed; conditions: 101 kPa, Liquid, x2 = 0; for viscosity: Capillary tube (Ostwald / Ubbelohde) method; for mass density: Pycnometric method

Row | SMILES | viscosity ([1]; 303.15 K) [mPa·s] | mass density ([1]; 303.15 K) [kg/m3] | viscosity ([1]; 308.15 K) [mPa·s] | mass density ([1]; 308.15 K) [kg/m3] | viscosity ([1]; 313.15 K) [mPa·s] | mass density ([1]; 313.15 K) [kg/m3] | viscosity ([1]; 318.15 K) [mPa·s] | mass density ([1]; 318.15 K) [kg/m3] | viscosity ([1]; 323.15 K) [mPa·s] | mass density ([1]; 323.15 K) [kg/m3] | viscosity ([2]; 303.15 K) [mPa·s] | mass density ([2]; 303.15 K) [kg/m3] | viscosity ([2]; 308.15 K) [mPa·s] | mass density ([2]; 308.15 K) [kg/m3] | viscosity ([2]; 313.15 K) [mPa·s] | mass density ([2]; 313.15 K) [kg/m3] | viscosity ([2]; 318.15 K) [mPa·s] | mass density ([2]; 318.15 K) [kg/m3] | viscosity ([2]; 323.15 K) [mPa·s] | mass density ([2]; 323.15 K) [kg/m3]
1 | OCc1ccccc1 [benzenemethanol] | 4.689 ± 0.059 | 1037.6 ± 0.9 | 4.058 ± 0.051 | 1033.8 ± 0.9 | 3.531 ± 0.044 | 1030.1 ± 0.9 | 3.103 ± 0.039 | 1026.3 ± 0.9 | 2.747 ± 0.035 | 1022.5 ± 0.9 |  |  |  |  |  |  |  |  |  | 
2 | CCC(C)=O [butanone] | 0.362 ± 0.005 | 794 ± 0.9 | 0.345 ± 0.005 | 788.8 ± 0.9 | 0.33 ± 0.004 | 783.5 ± 0.9 | 0.316 ± 0.004 | 778.3 ± 0.9 | 0.303 ± 0.004 | 773 ± 0.9 |  |  |  |  |  |  |  |  |  | 
3 | CCC(C)=O [butanone] + OCc1ccccc1 |  |  |  |  |  |  |  |  |  |  | 0.362 ± 0.005 | 794 ± 0.9 | 0.345 ± 0.005 | 788.8 ± 0.9 | 0.33 ± 0.004 | 783.5 ± 0.9 | 0.316 ± 0.004 | 778.3 ± 0.9 | 0.303 ± 0.004 | 773 ± 0.9
